Values quoted from earlier work, collected in patent US20230330223A1, “TREATMENT OF HER2 NEGATIVE, MAMMAPRINT HIGH RISK 2 BREAST CANCER” (Agendia N.V., priority 2020, published 2023).

System: locally advanced breast cancer (Stage II/III)
Conditions: added to standard neoadjuvant chemotherapy; ERBB2-negative (HER2-negative) breast cancer

For “pembrolizumab: immune check point inhibitor, PD1/PDL1 inhibitor antibody (Merck)”, which “estimated pCR rates, change versus standard chemotherapy” value is on record?
The value was “more than doubled”.
